# Assay results as given in ChEMBL document CHEMBL4387768, “New dual ligands for the D2 and 5-HT1A receptors from the group of 1,8-naphthyl derivatives of LCAP” (Bioorg Med Chem Lett, 2019).
# Experiments:
# Assay type in all cases: cell-based
# [1] = biological target: 5-hydroxytryptamine receptor 2A (Homo sapiens, UniProt P28223); assay: Displacement of [3H]-ketanserin from recombinant human 5HT2A receptor expressed in CHOK1 cells measured after 1 hr by microbeta counting method
# [2] = biological target: T1, 5-hydroxytryptamine receptor 1A (Homo sapiens, UniProt P08908); assay: Displacement of [3H]-8-OHDPAT from recombinant human 5HT1A receptor expressed in HEK293 cells measured after 1 hr by microbeta counting method
# T1 sequence (P08908 whole entry): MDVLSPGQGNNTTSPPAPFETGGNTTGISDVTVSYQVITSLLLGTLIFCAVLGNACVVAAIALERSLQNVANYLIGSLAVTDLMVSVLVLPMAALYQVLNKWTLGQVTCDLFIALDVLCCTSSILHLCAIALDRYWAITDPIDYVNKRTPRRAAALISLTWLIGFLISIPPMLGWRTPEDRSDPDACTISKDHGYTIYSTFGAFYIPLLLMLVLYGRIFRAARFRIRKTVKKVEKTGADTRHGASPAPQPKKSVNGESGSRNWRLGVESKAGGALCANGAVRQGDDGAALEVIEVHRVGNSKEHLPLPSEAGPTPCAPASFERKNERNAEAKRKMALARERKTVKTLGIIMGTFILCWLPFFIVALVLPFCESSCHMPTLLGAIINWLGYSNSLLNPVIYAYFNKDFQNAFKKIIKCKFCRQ
# D(2) dopamine receptor = D(2) dopamine receptor (Homo sapiens, UniProt P14416); assay: Displacement of [3H]-raclopride from recombinant human D2L receptor expressed in HEK293 cells measured after 1 hr by microbeta counting method
# D(2) dopamine receptor, sequence (P14416 whole entry): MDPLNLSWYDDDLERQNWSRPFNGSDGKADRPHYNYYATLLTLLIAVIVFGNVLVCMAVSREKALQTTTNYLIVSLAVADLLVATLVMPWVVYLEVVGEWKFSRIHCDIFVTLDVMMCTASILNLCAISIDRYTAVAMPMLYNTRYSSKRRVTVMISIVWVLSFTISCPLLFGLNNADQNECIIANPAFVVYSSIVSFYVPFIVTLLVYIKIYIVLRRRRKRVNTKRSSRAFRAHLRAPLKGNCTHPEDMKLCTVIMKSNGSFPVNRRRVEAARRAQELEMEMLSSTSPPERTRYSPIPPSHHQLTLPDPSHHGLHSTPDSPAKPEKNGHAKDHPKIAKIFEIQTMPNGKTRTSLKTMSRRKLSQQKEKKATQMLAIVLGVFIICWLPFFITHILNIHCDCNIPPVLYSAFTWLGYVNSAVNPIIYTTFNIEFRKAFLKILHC
# [3] = biological target: 5-hydroxytryptamine receptor 7 (Homo sapiens, UniProt P34969); assay: Displacement of [3H]-5-CT from recombinant human 5HT7B receptor expressed in HEK293 cells measured after 1 hr by microbeta counting method
# 5-hydroxytryptamine receptor 7, sequence (P34969 whole entry): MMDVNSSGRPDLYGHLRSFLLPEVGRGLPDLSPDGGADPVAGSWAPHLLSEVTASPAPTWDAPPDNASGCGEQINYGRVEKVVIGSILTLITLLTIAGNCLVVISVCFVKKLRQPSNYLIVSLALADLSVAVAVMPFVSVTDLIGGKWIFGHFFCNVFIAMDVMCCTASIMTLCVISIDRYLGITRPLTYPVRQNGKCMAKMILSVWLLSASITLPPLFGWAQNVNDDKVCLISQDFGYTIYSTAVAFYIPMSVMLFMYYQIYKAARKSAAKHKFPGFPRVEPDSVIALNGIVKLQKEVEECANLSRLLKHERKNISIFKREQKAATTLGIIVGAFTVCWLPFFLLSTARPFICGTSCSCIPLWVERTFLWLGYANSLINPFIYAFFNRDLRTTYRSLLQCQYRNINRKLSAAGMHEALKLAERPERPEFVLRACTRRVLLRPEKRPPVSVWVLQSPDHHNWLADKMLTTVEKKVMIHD
# [4] = biological target: 5-hydroxytryptamine receptor 6 (Homo sapiens, UniProt P50406); assay: Displacement of [3H]-LSD from recombinant human 5HT6 receptor expressed in HEK293 cells measured after 1 hr by microbeta counting method
# 5-hydroxytryptamine receptor 6, sequence (P50406 whole entry): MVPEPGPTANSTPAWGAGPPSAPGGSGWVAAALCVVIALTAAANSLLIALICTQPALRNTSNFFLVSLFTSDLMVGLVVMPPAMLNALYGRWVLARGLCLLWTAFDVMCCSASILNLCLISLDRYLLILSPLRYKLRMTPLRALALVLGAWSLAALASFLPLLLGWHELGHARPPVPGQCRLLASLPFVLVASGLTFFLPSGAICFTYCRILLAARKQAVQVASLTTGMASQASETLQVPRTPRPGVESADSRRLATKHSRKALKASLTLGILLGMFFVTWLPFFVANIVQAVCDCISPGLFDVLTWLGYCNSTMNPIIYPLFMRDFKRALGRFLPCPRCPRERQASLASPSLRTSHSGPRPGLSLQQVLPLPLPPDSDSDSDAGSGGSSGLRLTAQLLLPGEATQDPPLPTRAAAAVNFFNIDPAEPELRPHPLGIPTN
# 5-hydroxytryptamine receptor 2A, sequence (P28223 whole entry): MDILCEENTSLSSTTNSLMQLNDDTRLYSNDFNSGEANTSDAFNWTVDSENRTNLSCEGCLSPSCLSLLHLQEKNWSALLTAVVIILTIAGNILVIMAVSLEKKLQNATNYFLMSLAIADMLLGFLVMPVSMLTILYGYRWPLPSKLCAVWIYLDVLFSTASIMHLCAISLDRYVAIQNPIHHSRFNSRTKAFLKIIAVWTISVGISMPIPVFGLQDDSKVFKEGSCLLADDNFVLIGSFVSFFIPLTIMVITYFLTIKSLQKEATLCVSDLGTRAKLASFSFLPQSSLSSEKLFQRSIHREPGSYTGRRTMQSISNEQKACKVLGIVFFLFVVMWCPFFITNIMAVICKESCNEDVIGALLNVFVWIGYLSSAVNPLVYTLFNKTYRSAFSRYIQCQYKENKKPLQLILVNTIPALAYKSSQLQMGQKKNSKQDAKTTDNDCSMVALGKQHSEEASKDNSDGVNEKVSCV
Ki [1] [nM],Ki [2] [nM],Ki (D(2) dopamine receptor) [nM],Ki [3] [nM],Ki [4] [nM],SMILES
892,32,867,184,1460,O=C1c2cccc3cccc(c23)N1CCCCCCN1CCN(c2ccccn2)CC1
1930,291,180,3740,3670,COc1ccc(N2CCN(CCCCCCN3C(=O)c4cccc5cccc3c45)CC2)cc1
60100,3570,40000,116000,5760,COc1ccc(N2CCN(CCCCCCN3C(=O)c4cccc5cccc(c45)C3=O)CC2)cc1
533,482,264,822,494,O=[N+]([O-])c1ccccc1N1CCN(CCCCCCN2c3cccc4cccc(c34)S2(=O)=O)CC1
222,22,82,119,999,O=C1c2cccc3cccc(c23)N1CCCCCCN1CCN(c2cccc3cccnc23)CC1
3980,9470,431,696,952,O=C1c2cccc3cccc(c23)N1CCCCCCN1CCN(c2ccccc2[N+](=O)[O-])CC1
1920,373,141,710,1410,O=C1c2cccc3cccc(c23)C(=O)N1CCCCCCN1CCN(c2ccccc2[N+](=O)[O-])CC1
43,94,188,475,5250,O=C1c2cccc3cccc(c23)N1CCCCCCN1CCN(c2ncccn2)CC1
461,28,27,73,246,CCOc1ccccc1N1CCN(CCCCCCN2C(=O)c3cccc4cccc(c34)C2=O)CC1
334,47,271,371,347,COc1cccc(N2CCN(CCCCCCN3C(=O)c4cccc5cccc(c45)C3=O)CC2)c1
456,19,2,291,3270,COc1ccccc1N1CCN(CCCCCCn2c(=O)n3c4c(cccc42)CCC3)CC1
652,47,114,366,1700,COc1cccc(N2CCN(CCCCCCN3C(=O)c4cccc5cccc3c45)CC2)c1
578,48,30,34,476,CCOc1ccccc1N1CCN(CCCCCCN2c3cccc4cccc(c34)S2(=O)=O)CC1
563,172,1300,1200,1970,O=C1c2cccc3cccc(c23)C(=O)N1CCCCCCN1CCN(c2ccccn2)CC1
443,35,118,344,182,O=S1(=O)c2cccc3cccc(c23)N1CCCCCCN1CCN(c2ccccn2)CC1
337,20,10,266,671,COc1ccccc1N1CCN(CCCCCCN2C(=O)c3cccc4cccc(c34)C2=O)CC1
717,22,11,84,1920,CCOc1ccccc1N1CCN(CCCCCCN2C(=O)c3cccc4cccc2c34)CC1
